Assay results: patent US10420734B2, “Method of treating cancer using selective estrogen receptor modulators” (Duke University, priority 2014, dated 2019)
Like-named read-outs stand apart in the source and are kept apart here.

Key:
[1] = cited from earlier work
MCF7 xenograft tumors = experiment: MCF7 xenograft tumor study in estrogen-treated ovariectomized nu/nu mice; assay type: in vivo; conditions: 20 mg/kg sc daily
Description: A total of 90 female Nu/Nu mice were ovariectomized and implanted subcutaneous simultaneously with an estrogen pellet (Innovative Research of America) releasing 0.72 mg estradiol (E2) over 60 days. 2 days later an approximately 6 mm^3 fragment of an MCF7 xenograft tumor (isolated from a recently sacrificed estrogen treated nu/nu mouse) was inserted subcutaneous into the axial mammary gland. Tumor growth (by caliper measurement) and animal body weight were monitored 3× weekly until tumor volume reached ˜0.2 cm^3. […] Treatments were formulated in sterile corn oil and were administered daily by subcutaneous injection. After 3 weeks of treatments, animals were euthanized and serum and tissues saved for analysis. FIG. 1B depicts tumor volume analyzed using non-linear curve fit and exponential growth calculation (Graphpad Prism), followed by two-way ANOVA and Bonferroni analysis.
Xenograft tumor analysis: Estrogen-stimulated MCF7 tumors were initiated in the axial mammary gland of 6-week old estrogen-treated (0.72 mg/60 days pellet sc, Innovative Research of America) ovariectomized female NU/NU mice (in-house colony) by serial transfer and were measured as described (Wardell et al., (2013) Clin Cancer Res 19 (9):2420-2431). […] Animal tissues were processed and analyzed as described (Wardell et al., (2013) Clin Cancer Res 19 (9):2420-2431).
The ability of RAD1901 (FIG. 5A) to modulate the […] estradiol (E2) dependent transcriptional activity of the human estrogen receptor alpha (ESR1) and human estrogen receptor beta (ESR2) was assessed in transiently transfected SKBR3 cells using a synthetic reporter gene. […] DNA content as assessed by fluorescence was measured as a surrogate for cell proliferation. The relative increase in DNA fluorescence was calculated by normalizing to baseline values detected in a duplicate plate of cells that was harvested on day 1 prior to the initial treatment. […] For FIG. 5F, expression of ESR1 target genes in tumors was analyzed essentially as in (C).

ESR1 = biological target: T1, ESR1 (Mus musculus, UniProt P19785); experiment: Uterine wet weight analysis in ovariectomized C57Bl/6 mice; assay type: in vivo; conditions: for uterine wet weight, single agent: without E2
T1 construct: tissue Charles River (mice); host or cells: uterus of ovariectomized female C57Bl/6 mice
T1 sequence (P19785 1-599): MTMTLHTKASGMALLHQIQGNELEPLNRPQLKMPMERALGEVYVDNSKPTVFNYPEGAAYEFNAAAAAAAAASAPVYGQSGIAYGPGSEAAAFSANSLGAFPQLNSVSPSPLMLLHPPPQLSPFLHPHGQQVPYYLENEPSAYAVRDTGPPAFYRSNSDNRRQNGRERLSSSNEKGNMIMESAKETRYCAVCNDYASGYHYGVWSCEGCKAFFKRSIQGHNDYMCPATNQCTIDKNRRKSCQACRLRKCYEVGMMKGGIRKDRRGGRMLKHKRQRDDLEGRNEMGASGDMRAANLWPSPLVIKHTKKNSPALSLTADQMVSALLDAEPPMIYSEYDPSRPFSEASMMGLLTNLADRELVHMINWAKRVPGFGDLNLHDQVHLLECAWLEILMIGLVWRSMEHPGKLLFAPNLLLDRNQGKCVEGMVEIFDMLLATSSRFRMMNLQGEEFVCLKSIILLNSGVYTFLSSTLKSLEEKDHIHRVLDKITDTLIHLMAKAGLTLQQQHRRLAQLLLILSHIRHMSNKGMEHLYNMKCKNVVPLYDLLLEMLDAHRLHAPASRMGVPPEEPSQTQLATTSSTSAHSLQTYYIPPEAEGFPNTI
Description: Uterine wet weight analysis: Ovariectomized (10 days prior) female C57Bl/6 mice (Charles River) were treated daily (n=5) for 3 days with vehicle or estradiol benzoate (10 μg/kg sc) as well as vehicle, raloxifene (10 mg/kg sc), or RAD1901 (0.1-100 mg/kg sc). Ligands were dissolved in corn oil (Spectrum chemicals). On day 4, mice were euthanized and tissues were retained for analysis. Uterine wet weight was calculated as a ratio of uterus weight upon removal to body weight post-mortem.
As a first step, the impact of RAD1901 on uterine wet weight in mice was evaluated. For this study, increasing doses of RAD1901 was administered daily to ovariectomized C57Bl/6 mice receiving vehicle alone or E2 (10 μg/kg; a physiological replacement dose). A group of mice receiving 10 mg/kg of raloxifene was included for comparative purposes and for reference. Ovariectomized C57Bl/6 mice (n=5) were treated daily for 3 days with (FIG. 8A) vehicle or (FIG. 8B) estradiol (10 μg/kg) together with vehicle, Ralox (10 mg/kg) or RAD1901 (RAD), ([…]). At euthanasia, body weight as well as uterine wet weight was measured prior to cryopreservation of the uterus. […] For FIG. 8C, ESR1 and β-actin expression in extracts made from pulverized uterine tissues were analyzed by immunoblot as in FIG. 5 (left). ESR1 expression relative to β-actin was quantitated as in FIG. 6 (right). Significant downregulation (*p<0.05) of ESR1 was determined by ANOVA followed by Bonferroni comparison.

LTED MCF7 cells = experiment: LTED MCF7 cell proliferation assay; assay type: cell-based; conditions: model of aromatase resistance, 10^-11-10^-6 M, 8 day assay

- ESR1 expression in uterine tissue (immunoblot) (ESR1; 0.3 mg/kg): no decrease in ESR1 expression
- uterine wet weight, single agent (ESR1; 0.3 mg/kg sc daily for 3 days): statistically significant increase
- ESR1 expression in uterine tissue (immunoblot) (ESR1; RAD1901 0.3-100 mg/kg): dose dependent downregulation
SMILES: CCNCCc1ccc(CN(CC)c2cc(OC)ccc2[C@@H]2CCc3cc(O)ccc3C2)cc1 [RAD1901, (R)-6-{2-{ethyl[4-(2-ethylaminoethyl)benzyl]amino}-4-methoxyphenyl}-5,6,7,8-tetrahydronaphthalen-2-ol]
- induction of hot flashes ([1]; healthy postmenopausal women): induces hot flashes in healthy postmenopausal women in a dose dependent manner
- hot flashes in clinical trials ([1]; higher doses tested): ineffective
- hot flashes in clinical trials ([1]; lowest dose tested): effectively suppress hot flashes
- brain penetrance ([1]; postmenopausal women): significant brain penetrance
- E2-stimulated growth of MCF7 tumors (MCF7 xenograft tumors): inhibited E2-stimulated growth of the tumors with efficacy similar to tamoxifen
- expression of ESR1-target genes PGR and FHL1 in treated tumors (MCF7 xenograft tumors): suppress the expression of the ESR1-target genes PGR and FHL1 to the same degree
- uterine wet weight, single agent (ESR1; doses of 1 mg/kg and above, sc daily for 3 days): indistinguishable from vehicle treated animals
- E2-dependent increases in uterine wet weight (ESR1; with estradiol 10 μg/kg, RAD1901 0.3-100 mg/kg): inhibit E2-dependent increases in uterine wet weight
- cell proliferation (LTED MCF7 cells): inhibited cell proliferation
